According to US10126304B2, “Binding domain mapping” (George Mason Research Foundation, Inc., priority 2013, dated 2018):
Entries after “also recorded” stand apart in the source; their conditions may differ.

How the values were obtained:
[1] = target: T1, IL1R1 molecule, soluble portion (Homo sapiens, UniProt P14778); assay: Trypsin sites blocked by small organic molecules on folded protein, mass spectrometry; type: biochemical
T1 construct: Linear representation of IL1R1 molecule, soluble portion; purchased Adipogen
T1 sequence (P14778 21-336): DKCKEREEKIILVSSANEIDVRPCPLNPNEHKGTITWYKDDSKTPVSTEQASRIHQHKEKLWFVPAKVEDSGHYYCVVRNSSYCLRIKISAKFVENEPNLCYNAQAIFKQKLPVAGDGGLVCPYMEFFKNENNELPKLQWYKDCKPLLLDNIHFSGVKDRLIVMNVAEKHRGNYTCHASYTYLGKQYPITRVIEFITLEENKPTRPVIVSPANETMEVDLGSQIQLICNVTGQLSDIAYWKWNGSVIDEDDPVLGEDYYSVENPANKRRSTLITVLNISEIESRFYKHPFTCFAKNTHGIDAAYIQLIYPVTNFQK
Source text: The binding of the small organic molecules is localized to multiple sites restricted to the surface of the protein, and excluded from internal domains of protein-protein interactions […]. […] Thus these molecules can be employed to reveal a) the inner contact domains of a single folded protein or b) the contact domains of two or more interacting proteins.
To identify functional protein-protein interaction domains, three equimolar concentrations of Interleukin ligand, its cognate receptor, and its accessory proteins were selected as a proof of concept protein complex. Interleukin 1β (IL1β, Gibco, 65 pmoles in 50 μl PBS), Interleukin 1 receptor type I (IL1RI, Adipogen, 65 pmoles in 50 μl PBS), and Interleukin 1 receptor accessory protein (IL1RAcP, Novoprotein, 65 pmoles in 50 μl PBS), were allowed to interact for one hour at room temperature under rotation. […]
As a control to identify solvent accessible surface areas, protein solutions were prepared in parallel at the same concentrations without adding paint molecules. […] Equal quantities of unbound, Interleukin 1β, IL1RI, or IL1RAcP were mixed individually with each of the four molecular paints (3 proteins×4 paints, n=12) in a 1:10 molar ratio (protein:molecular paint). […]
The solutions were immediately passed through a size sieving Sephadex column (PD MiniTrap G 25, GE Healthcare) and the flow through was collected, denatured with urea (final concentration 2M), reduced with 1 M dithiothreitol (Sigma, 15 minutes at 37° C.), alkylated with 0.5 M iodoacetamide (Sigma, 15 minutes, room temperature in the dark), and digested with trypsin (Promega) at 1:10 w/w protease/protein ratio for 2 hours at 37° C. Tryptic peptides were purified by Zip-Tip (Millipore) following manufacturer's instructions, and analyzed by reversed-phase liquid chromatography nanospray tandem mass spectrometry (LC-MS/MS) using an LTQ-Orbitrap mass spectrometer (ThermoFisher).

[2] = test system: SAPK/JNK signaling downstream from IL1RI; assay: SAPK/JNK signaling in IL1β stimulated NCI/ADR-RES cells, western blotting; type: cell-based; settings: IL1β 10 ng/mL; Arg286 peptide 3.3, 16.7 and 33 μM; scrambled peptide 33 μM
Experimental: NCI/ADR-RES cells (Division of Cancer Treatment and Diagnosis, National Cancer Institute) were cultured in Dulbecco's modified Eagle's medium (Gibco) with 10% fetal bovine serum (ATCC), and 2 mM L-glutamine (ATCC) at 37° C., 5% CO2, in a humidified environment. NCI/ADR-RES cells (2×10^6 cells/well) were plated into 6-well tissue culture dishes. The following day, cells were pre-treated for 30 minutes with soluble IL1RAcP (1 μg/mL) lacking the trans-membrane domain, Arg286 peptide ([…], 3.3, 16.7 and 33 μM) (SEQ ID NO:6) and a scrambled peptide obtained by randomly shuffling Arg286 sequence ([…], 33 μM) (SEQ ID NO:7). Cells were washed with Dulbecco's modified Eagle's medium with 10% fetal bovine serum, and 2 mM glutamine and were stimulated with IL1β at 10 ng/ml for 30 min. Following incubation, cells were washed in ice-cold PBS, incubated with 100 μl of cell lysis buffer (10% Bond Breaker TCEP solution (Thermo Scientific), 45% T-PER tissue protein extraction reagent (Thermo Scientific) and 45% Novex Tris Glycine SDS sample buffer 2× (Invitrogen)), scraped, transferred to Eppendorf tubes, and heated at 100° C. for 10 minutes. Cell lysates were analyzed by western blotting.
Proteins were separated by 1-D gel electrophoresis in 4-20% Tris-Glycine gel in the presence of Tris-Glycine SDS running buffer with the following run conditions: 125 V, 90 minutes. […]

[3] = target: T2, IL1β-IL1RI-IL1RAcP complex (Homo sapiens, UniProt P01584+P14778); assay: Pull-down of IL1β within the receptor complex by His-tagged IL1RAcP (immunoprecipitation); type: binding; settings: Arg286 peptide 6.7, 3.3, 1.7, 0.8 and 0.4 μM
T2 construct: purchased Gibco (IL1β); Adipogen (IL1RI); Novoprotein (IL1RAcP)
T2 sequence (P01584 117-269, one chain of several): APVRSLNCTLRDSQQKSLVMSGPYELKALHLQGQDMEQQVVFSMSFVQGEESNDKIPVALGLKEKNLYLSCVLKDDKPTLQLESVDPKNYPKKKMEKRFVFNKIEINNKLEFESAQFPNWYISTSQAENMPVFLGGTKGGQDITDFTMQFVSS
Experimental: IL1β (0.44 μg/mL), IL1RI (2 μg/mL) and 6×His-tagged IL1RAcP (0.72 μg/mL) were incubated with Arg286 peptide (6.7, 3.3, 1.7, 0.8 and 0.4 μM) in 50 μl of PBS for one hour at room temperature under rotation. In parallel, […], IL1RI and 6×His-tagged IL1RAcP were allowed to interact without Arg286 peptide as a positive control. IL1β, and 6×His-tagged IL1RAcP were allowed to interact in absence of IL1RI as a negative control. After 1 hour, protein mixtures were incubated with magnetic beads decorated with anti-6His mouse monoclonal antibody obtained as follows. BcMag Protein G Magnetic Beads (50 μl, Bioclone) were washed 3 times with washing buffer (57.7 mM Na2HPO4, 42.3 mM NaH2PO4, pH 7.0) and incubated with anti-6×His mouse monoclonal antibody (1 μg, Abcam) for 30 minutes under rotation. Magnetic beads were separated from the supernatant with neodymium magnets, washed three times with washing buffer (57.7 mM Na2HPO4, 42.3 mM NaH2PO4, pH 7.0) and incubated with protein mixtures for one hour at room temperature under rotation. Magnetic beads were separated from the supernatant with neodymium magnets and washed three times with washing buffer (57.7 mM Na2HPO4, 42.3 mM NaH2PO4, pH 7.0). Immuno-precipitated proteins were eluted with 20 μl of 4× sample buffer (10 minutes, 70° C.). Immuno-precipitated proteins were analyzed by western blotting. […]

Compound	location of blocked trypsin sites on IL1R1 [1]	inhibition of SAPK/JNK signaling downstream from IL1RI [2]	inhibition of ligand pull-down / 3-protein complex formation [3]
O=S(=O)(O)c1cccc2cccc(Nc3ccccc3)c12 [ANSA, 8-Anilino-1-naphthalenesulfonic acid]	lay on the surface of the molecule	–	–
CN=C1C=CC(=C(c2ccc(N(C)C)cc2)c2ccc(N(C)C)cc2)C=C1.Cl [MV, N-(4-{bis[4-(dimethylamino)phenyl]methylene}-2,5-cyclohexadien-1-ylidene)methanaminium chloride]	lay on the surface of the folded native molecule	–	–
CCN1/C(=C/C=C/c2sc3ccccc3[n+]2CC)Sc2ccccc21 [DECI, 3,3′-Diethylthiacarbocyanine iodide]	lay on the surface of the folded molecule	–	–
TINESISHSRTEDETRTQILS [Arg286 peptide]	–	completely blocked IL1 ligand-stimulated signaling, in a dose dependent manner; also recorded: inhibited SAPK/JNK signaling downstream from IL1RI as effectively as IL1RAcP	completely blocked IL1RAcP 3-way binding to the receptor ligand complex; also recorded: inhibition of ligand pull-down
HLRNISRISSITDTSETETEQ [scrambled peptide]	–	does not inhibit the signaling downstream from IL1RI	–
